For two molecules, Activity and inhibition results are on record in ChEMBL document CHEMBL4118021, “Studies of TAK1-centered polypharmacology with novel covalent TAK1 inhibitors” (Bioorg Med Chem, 2017).

One may read the inhibition as the relative decrease from the control value, in per cent.

Common to all, as to format: cell-based
The target of assay [1] is Citrate synthase, mitochondrial (Homo sapiens) (UniProt O75390). In words: Binding affinity to CS in human NCI-H23 cells at 1 uM by mass spectrometry based pull down assay.
Assay [2] concerns the target Membrane-associated progesterone receptor component 1 (Homo sapiens) (UniProt O00264). In words: Binding affinity to PGRMC1 in human NCI-H23 cells at 1 uM by mass spectrometry based pull down assay.
Assay [3] concerns the target T1, 80S Ribosome (Homo sapiens) (UniProt P08865+P42677+P62753+P15880+P23396+P61247+P62701+P22090+P46782+P62081+P62241+P46781+P46783+P62280+P25398+P62277+P62263+P62841+P62244+P62249+P08708+P62269+P39019+P60866+P63220+P62266+P62847+P62851+P62854+P62979+P62857+P62273+P62861+P39023+P36578+P46777+Q02878+P18124+P62424+P62917+P32969+P27635+P62906+P62913+P30050+P26373+P40429+P50914+P61313+P18621+Q07020+Q02543+P84098+P46778+P35268+P62829+P62750+P83731+P61254+P61353+P46776+P46779+P47914+P62888+P62899+P62910+P49207+P42766+P18077+Q9Y3U8+P83881+P61927+P61513+P63173+P62891+P62945+P05388+P05386). The experiment in a line: Binding affinity to RPL23A in human NCI-H23 cells at 1 uM by mass spectrometry based pull down assay.

Assay [4] has as its target Kinesin-1 heavy chain (Homo sapiens) (UniProt P33176). In words: Binding affinity to KIF5B in human NCI-H23 cells at 1 uM by mass spectrometry based pull down assay.
Assay [5] concerns the target Testis-expressed protein 264 (Homo sapiens) (UniProt Q9Y6I9). In words: Binding affinity to TEX264 in human NCI-H23 cells at 1 uM by mass spectrometry based pull down assay.
For assay [6], the target named is Poly(rC)-binding protein 1 (Homo sapiens) (UniProt Q15365). The experiment in a line: Binding affinity to PCBP1 in human NCI-H23 cells at 1 uM by mass spectrometry based pull down assay.
In assay [7] the target is Mitogen-activated protein kinase 3 (Homo sapiens) (UniProt P27361). The experiment in a line: Binding affinity to MAPK3 in human NCI-H23 cells at 1 uM by mass spectrometry based pull down assay.
The target of assay [8] is Heterogeneous nuclear ribonucleoprotein U (Homo sapiens) (UniProt Q00839). The experiment in a line: Binding affinity to HNRNPU in human NCI-H358 cells at 1 uM by mass spectrometry based pull down assay.
The target of assay [9] is T1, 80S Ribosome (Homo sapiens). In words: Binding affinity to RPS24 in human NCI-H358 cells at 1 uM by mass spectrometry based pull down assay.
Assay [10] addresses Proteasome subunit beta type-6 (Homo sapiens) (UniProt P28072). In words: Binding affinity to PSMB6 in human NCI-H358 cells at 1 uM by mass spectrometry based pull down assay.
For assay [11], the target named is T2, Serine/threonine-protein kinase Nek9 (Homo sapiens) (UniProt Q8TD19).
T2 sequence (whole entry): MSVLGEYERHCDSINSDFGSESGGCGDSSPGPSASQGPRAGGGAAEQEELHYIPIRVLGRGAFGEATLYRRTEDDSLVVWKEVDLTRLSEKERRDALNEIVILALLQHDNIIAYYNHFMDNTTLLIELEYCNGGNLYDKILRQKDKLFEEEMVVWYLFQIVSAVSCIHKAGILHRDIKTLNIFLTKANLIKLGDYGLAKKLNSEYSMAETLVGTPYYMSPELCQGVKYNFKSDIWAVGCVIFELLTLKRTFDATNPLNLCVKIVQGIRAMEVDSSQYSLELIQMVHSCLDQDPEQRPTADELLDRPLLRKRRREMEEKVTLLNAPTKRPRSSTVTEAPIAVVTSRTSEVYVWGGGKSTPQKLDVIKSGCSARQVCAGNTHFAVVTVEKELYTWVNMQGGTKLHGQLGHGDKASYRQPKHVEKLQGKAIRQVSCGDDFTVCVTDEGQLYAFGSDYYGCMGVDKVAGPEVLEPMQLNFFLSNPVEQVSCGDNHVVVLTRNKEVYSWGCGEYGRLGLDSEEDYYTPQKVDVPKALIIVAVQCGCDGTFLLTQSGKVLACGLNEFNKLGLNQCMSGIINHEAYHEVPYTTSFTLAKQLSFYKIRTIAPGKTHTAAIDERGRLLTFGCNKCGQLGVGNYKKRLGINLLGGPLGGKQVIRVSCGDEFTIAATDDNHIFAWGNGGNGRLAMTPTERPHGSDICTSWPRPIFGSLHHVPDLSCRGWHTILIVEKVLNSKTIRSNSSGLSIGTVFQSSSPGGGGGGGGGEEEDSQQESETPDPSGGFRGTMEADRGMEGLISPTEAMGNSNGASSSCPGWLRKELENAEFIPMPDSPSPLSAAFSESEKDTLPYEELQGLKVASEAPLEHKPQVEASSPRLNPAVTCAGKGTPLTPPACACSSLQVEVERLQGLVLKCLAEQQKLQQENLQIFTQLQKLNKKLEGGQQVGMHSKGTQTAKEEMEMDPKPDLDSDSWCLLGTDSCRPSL
In words: Binding affinity to NEK9 in human NCI-H358 cells at 1 uM by mass spectrometry based pull down assay.

For assay [12], the target named is T3, Dual specificity mitogen-activated protein kinase kinase 6 (Homo sapiens) (UniProt P52564).
T3 sequence (whole entry): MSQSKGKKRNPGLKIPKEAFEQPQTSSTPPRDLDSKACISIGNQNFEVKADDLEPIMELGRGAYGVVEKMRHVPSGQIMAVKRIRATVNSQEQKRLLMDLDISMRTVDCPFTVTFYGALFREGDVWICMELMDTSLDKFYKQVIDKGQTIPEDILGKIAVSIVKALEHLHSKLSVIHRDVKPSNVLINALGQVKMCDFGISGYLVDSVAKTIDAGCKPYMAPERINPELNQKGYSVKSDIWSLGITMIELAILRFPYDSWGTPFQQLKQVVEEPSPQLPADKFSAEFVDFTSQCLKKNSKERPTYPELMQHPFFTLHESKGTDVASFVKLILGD
In words: Binding affinity to MAP2K6 in human NCI-H358 cells at 1 uM by mass spectrometry based pull down assay.

The target in assay [13] is Ras-related protein Rab-22A (Homo sapiens) (UniProt Q9UL26). In words: Binding affinity to RAB22A in human NCI-H358 cells at 1 uM by mass spectrometry based pull down assay.
The target of assay [14] is YTH domain-containing family protein 2 (Homo sapiens) (UniProt Q9Y5A9). In words: Binding affinity to YTHDF2 in human NCI-H358 cells at 1 uM by mass spectrometry based pull down assay.
Assay [15] concerns the target Serine/threonine-protein kinase MARK1 (Homo sapiens) (UniProt Q9P0L2). In words: Inhibition of MARK1 in human SKCO1 cells at 1 uM after 4 hrs using biotin labeled EVAVKIIDK probe by mass-spectrometric analysis relative to control.

Active and inactive are the calls of the source. The rule behind the calls is not given here.

Chain of Heterogeneous nuclear ribonucleoprotein U (Homo sapiens) (Q00839 whole entry): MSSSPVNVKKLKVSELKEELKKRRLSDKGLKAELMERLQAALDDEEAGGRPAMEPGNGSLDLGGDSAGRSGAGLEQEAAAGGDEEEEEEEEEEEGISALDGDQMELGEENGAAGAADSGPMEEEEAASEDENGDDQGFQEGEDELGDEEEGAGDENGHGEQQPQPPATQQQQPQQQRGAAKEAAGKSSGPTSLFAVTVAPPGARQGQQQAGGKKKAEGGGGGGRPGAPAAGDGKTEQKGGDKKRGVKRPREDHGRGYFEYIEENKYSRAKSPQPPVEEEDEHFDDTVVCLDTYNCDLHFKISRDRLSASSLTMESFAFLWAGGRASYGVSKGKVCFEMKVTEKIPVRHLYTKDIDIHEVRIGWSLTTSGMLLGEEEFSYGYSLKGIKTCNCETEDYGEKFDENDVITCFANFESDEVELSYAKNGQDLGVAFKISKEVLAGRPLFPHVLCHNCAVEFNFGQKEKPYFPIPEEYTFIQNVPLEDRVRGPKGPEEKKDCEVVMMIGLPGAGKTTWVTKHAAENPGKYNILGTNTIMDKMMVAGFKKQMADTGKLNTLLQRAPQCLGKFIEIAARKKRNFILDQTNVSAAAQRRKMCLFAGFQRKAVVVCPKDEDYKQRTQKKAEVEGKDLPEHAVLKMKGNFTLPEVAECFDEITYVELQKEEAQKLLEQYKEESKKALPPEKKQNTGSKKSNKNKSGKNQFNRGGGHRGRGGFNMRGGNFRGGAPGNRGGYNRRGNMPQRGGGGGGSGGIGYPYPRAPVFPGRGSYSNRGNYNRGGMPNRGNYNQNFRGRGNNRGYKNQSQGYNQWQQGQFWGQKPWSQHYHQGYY
Chain of Testis-expressed protein 264 (Homo sapiens) (Q9Y6I9 whole entry): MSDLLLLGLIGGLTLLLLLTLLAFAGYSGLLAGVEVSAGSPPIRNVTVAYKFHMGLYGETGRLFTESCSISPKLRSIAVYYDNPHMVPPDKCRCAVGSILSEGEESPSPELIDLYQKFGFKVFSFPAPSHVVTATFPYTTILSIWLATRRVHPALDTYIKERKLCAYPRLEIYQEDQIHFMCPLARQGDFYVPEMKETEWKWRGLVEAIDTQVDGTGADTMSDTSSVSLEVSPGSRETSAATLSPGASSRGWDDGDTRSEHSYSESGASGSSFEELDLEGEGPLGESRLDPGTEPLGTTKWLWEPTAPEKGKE
Chain of Mitogen-activated protein kinase 3 (Homo sapiens) (P27361 whole entry): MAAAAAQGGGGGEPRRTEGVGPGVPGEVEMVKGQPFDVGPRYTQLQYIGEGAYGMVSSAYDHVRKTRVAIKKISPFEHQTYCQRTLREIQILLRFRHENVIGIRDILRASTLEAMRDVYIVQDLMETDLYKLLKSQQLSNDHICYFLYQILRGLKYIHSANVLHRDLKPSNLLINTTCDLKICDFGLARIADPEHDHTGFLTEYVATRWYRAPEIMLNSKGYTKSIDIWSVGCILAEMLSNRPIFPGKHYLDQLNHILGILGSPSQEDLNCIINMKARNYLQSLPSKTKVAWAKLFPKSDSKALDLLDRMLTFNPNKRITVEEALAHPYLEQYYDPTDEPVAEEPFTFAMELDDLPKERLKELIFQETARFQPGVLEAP
Chain of Membrane-associated progesterone receptor component 1 (Homo sapiens) (O00264 whole entry): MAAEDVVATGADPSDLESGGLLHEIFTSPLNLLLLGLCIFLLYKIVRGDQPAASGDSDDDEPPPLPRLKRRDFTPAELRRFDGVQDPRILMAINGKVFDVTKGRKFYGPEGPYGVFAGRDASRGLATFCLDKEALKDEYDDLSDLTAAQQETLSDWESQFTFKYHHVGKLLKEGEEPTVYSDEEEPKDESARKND
Chain of Kinesin-1 heavy chain (Homo sapiens) (P33176 whole entry): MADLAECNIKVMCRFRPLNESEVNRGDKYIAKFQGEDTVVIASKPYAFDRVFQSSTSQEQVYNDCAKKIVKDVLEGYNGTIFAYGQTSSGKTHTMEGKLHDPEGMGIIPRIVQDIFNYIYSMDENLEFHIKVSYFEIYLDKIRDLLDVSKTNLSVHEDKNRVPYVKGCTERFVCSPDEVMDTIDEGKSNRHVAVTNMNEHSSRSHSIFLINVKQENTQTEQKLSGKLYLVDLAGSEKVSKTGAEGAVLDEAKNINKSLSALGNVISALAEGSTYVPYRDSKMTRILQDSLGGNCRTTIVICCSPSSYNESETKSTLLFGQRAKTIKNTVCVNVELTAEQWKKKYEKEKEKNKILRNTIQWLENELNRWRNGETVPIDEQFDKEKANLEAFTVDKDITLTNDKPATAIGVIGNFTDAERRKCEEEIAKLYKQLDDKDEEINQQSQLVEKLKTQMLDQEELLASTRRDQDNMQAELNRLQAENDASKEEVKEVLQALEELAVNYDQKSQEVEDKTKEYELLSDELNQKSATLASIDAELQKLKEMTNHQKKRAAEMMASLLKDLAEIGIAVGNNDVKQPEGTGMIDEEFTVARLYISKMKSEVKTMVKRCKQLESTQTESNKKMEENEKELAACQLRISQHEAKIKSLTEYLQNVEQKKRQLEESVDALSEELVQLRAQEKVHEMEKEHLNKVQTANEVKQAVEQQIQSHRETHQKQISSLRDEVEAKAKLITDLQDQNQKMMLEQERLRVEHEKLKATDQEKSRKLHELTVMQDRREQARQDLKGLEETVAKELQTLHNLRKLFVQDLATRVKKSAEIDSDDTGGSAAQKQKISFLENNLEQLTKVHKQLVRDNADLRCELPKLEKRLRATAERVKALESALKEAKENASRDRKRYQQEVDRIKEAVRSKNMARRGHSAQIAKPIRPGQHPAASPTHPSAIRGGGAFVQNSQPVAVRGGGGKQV
Chain of Serine/threonine-protein kinase MARK1 (Homo sapiens) (Q9P0L2 whole entry, looked up): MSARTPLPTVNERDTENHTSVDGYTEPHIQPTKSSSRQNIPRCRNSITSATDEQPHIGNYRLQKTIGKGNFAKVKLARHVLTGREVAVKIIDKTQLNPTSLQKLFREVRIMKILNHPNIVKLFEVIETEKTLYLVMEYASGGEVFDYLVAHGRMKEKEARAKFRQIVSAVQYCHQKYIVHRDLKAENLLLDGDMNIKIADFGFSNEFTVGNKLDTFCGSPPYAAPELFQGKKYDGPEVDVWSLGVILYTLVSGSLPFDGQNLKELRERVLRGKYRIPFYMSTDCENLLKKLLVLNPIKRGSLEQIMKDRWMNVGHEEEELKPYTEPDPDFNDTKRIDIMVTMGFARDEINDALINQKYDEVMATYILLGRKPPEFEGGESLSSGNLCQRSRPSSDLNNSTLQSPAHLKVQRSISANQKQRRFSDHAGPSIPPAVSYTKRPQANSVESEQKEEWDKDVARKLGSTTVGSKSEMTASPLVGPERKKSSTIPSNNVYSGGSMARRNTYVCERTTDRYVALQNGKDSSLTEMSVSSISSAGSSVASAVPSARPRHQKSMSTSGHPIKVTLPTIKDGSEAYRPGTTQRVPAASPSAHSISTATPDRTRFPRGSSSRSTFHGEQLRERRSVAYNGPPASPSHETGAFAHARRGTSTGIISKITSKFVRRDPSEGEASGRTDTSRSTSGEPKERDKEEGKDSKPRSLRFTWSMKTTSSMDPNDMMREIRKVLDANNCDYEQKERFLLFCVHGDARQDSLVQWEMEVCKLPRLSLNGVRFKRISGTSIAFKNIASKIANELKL
Chain of YTH domain-containing family protein 2 (Homo sapiens) (Q9Y5A9 whole entry, the tested form may be a part): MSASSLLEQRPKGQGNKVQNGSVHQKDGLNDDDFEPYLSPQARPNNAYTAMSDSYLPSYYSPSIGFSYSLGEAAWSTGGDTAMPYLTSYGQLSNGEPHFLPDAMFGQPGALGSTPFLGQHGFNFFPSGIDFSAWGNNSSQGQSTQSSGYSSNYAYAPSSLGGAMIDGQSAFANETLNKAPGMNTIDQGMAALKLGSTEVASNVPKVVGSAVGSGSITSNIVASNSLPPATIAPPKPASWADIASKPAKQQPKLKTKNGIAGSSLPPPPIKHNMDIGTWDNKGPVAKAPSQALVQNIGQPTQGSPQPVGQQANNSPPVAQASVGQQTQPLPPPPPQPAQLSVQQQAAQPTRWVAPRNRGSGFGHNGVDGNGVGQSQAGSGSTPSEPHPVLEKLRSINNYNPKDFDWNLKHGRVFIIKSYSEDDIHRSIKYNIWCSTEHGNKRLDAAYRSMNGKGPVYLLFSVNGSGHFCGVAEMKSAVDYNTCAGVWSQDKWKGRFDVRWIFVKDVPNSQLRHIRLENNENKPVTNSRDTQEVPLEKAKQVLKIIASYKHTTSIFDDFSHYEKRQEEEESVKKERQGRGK
Chain of Ras-related protein Rab-22A (Homo sapiens) (Q9UL26 whole entry, the tested form may be a part): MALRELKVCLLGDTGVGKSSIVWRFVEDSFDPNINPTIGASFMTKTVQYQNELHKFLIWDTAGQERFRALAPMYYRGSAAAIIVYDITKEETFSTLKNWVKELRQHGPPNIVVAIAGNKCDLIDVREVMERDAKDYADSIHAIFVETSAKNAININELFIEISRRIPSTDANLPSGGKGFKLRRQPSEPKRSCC
Chain of Poly(rC)-binding protein 1 (Homo sapiens) (Q15365 whole entry): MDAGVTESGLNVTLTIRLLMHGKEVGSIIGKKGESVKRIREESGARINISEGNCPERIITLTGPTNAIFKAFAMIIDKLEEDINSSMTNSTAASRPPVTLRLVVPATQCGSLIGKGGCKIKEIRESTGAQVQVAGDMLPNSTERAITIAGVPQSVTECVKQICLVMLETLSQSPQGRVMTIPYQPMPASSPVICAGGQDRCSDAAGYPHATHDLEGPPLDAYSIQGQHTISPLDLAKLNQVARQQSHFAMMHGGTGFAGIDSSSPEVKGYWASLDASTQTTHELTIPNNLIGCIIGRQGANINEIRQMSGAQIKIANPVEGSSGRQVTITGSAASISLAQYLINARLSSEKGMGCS
Chain of Proteasome subunit beta type-6 (Homo sapiens) (P28072 whole entry): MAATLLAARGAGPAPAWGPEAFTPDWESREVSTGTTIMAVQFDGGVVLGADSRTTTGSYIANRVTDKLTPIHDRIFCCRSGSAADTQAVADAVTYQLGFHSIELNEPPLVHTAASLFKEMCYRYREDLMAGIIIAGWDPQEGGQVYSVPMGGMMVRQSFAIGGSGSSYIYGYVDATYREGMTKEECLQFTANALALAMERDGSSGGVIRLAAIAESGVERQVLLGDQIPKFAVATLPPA

As to `C=CC(=O)Nc1ccccc1Nc1nc(Nc2ccc(N3CCN(CCOCCOCCOCCNC(=O)CCCC[C@@H]4SC[C@@H]5NC(=O)N[C@@H]54)CC3)cc2)ncc1Cl`, the result in [1], in assay [2], in [3], in assay [4], in assay [5] and in assay [6] was Active. For the same molecule, the outcome in assay [7], in assay [8], in assay [9], in assay [10], in assay [11] and in assay [12] was Active. Also, the result in assay [13] and in [14] was Active.
Consider `C=CC(=O)Nc1ccccc1Nc1nc(Nc2ccc(N3CCN(C)CC3)cc2)ncc1Cl`, for which, in [15], the inhibition was -5.7%.
